For this experiment, the system named is non-Hodgkins lymphoma. The experiment can be described thus: broad spectrum antibiotic cover in a non-Hodgkins lymphoma patient with mixed bacterial pneumonia. The experiment is classed as in vivo, human. Conditions: given together: Penicillin 1 million units three times a day i.m., chloramphenicol 1.25 g three times a day i.m., flagyl 400 mg three times a day orally; following one week. The text has this: If, on the other hand, a disease-associated organism is found within the body of a patient, which organism is classified as beneficial regarding a targeted disease (i.e., the activity of the organism is either causative or synergistic toward the disease), a therapeutic agent which is antagonistic toward such beneficial organism may be administered to the patient for aiding the patient's immune system in fighting against such causative or synergistic organism. Organisms have often been reported to exist in cancer patients both in tumor biopsies and in overt disease, in the treatment of a non-Hodgkins lymphoma patient suffering from mixed bacterial pneumonia, inventor prescribed broad spectrum antibiotic cover-Penicillin 1 million units three times a day, chloramphenicol 1.25 g three times a day, and flagyl 400 mg three times a day; the first two by intramuscular route and the flagyl orally.

3 molecules from patent publication US20030103900A1, “Use of disease-associated organisms” (priority 2001, published 2003) can be followed below.

For `O=C(N[C@H](CO)[C@H](O)c1ccc([N+](=O)[O-])cc1)C(Cl)Cl` [chloramphenicol], the “change of cancerous lymph nodes” value was “cancerous lymph nodes shrank and softened”. For `Cc1ncc([N+](=O)[O-])n1CCO` [flagyl], the “change of cancerous lymph nodes” value is “cancerous lymph nodes shrank and softened”.

Penicillin: the “change of cancerous lymph nodes” value is “cancerous lymph nodes shrank and softened”.
